From patent US6881419B2, “Vitamin formulation for enhancing bone strength” (priority 2002, dated 2005)

System: osteoporosis
Assay: Case Study-1: bone scan, tolerability and energy in a subject with osteoporosis and rheumatoid arthritis
Conditions: person, placed on it at diagnosis of osteoporosis
From the text: The exemplary case studies utilize subjects ranging from fifty-one (51) to eighty-three (83) years of age.

## NCCCC(O)(P(=O)([O-])O)P(=O)(O)O.[Na+] [Fosimex]
  Tolerability (stomach problems which developed into an ulcer): unable to tolerate
